Measurements: patent publication US20260167659A1, “STING AGONISTS” (LIGACHEM BIOSCIENCES INC., priority 2022, published 2026)

Tests used:
hSTING H232 variant = molecular target: T1, hSTING H232 variant (Homo sapiens, UniProt Q86WV6); assay: STING activation, THP1-Dual IRF3 reporter assay, hSTING-H232 cells; assay type: cell-based; settings: IRF3 luciferase reporter, 24 hours, read-out: STING activity using hSTING-H232 cells, H232 EC50
T1 construct: host or cells: THP1-Dual cells (human monocytes) with knocked-in hSTING H232
Experimental: (§1) To assess potency of STING agonist compounds described herein, THP1-Dual™ Cells (NF—KB-SEAP and IRF-Lucia luciferase reporter monocytes, InvivoGen) were used. The reporter cells were knocked-in either of hSTING-WT (R232, #thpd-r232), HAQ variant (#thpd-nfis), or H232 variant (#thpd-h232). All cells were cultured at 37° C. in a humidified incubator at 5% CO2 and maintained in RPMI 1640 medium (Gibco, #22400097) supplemented with 10% heat-inactivated FBS and 1×Pen-Strep (Gibco, #15140122). To measure STING agonist-mediated IRF3 activity, the cells (9.0×10^4 cells per well) were seeded in a flat-bottomed 96-well plate. The next day, the cells were treated with compounds in a serial dilution for 24 hours. Subsequently, 20 μL of the cell culture supernatant and 50 μL of the QUANTI-Luc™ reagent (InvivoGen, #rep-qlc) were mixed in a 96-well white plate and then, luciferase activity was measured using an EnVision Xcite multilabel reader. The data were analyzed using Prism8 software (4-parameter).
(§2) The potency of STING agonist compounds was evaluated by the activation of Type I Interferon pathway using THP-1 IRF3 reporter assay.

[1] = Normal cell cytotoxicity in PBMCs, CellTiter-Glo; assay type: cell-based; settings: human, read-out: In vitro cell cytotoxicity in PBMCs CC50
Experimental: PBMCs were also purchased from […]™ (#700025.2). The cells (8.0×10^4 cells per well) were seeded in a flat-bottomed 96-well plate in RPMI 1640 medium (Gibco, #22400097) with 10% heat-inactivated FBS and 1× Antibiotic-Antimycotic (Gibco, #15240062) and rested for 24 hours at 37° C. […] After 72 hours, the cell viability was measured using CellTiter-Glo Luminescent Cell Viability Assay (Promega, #G7573) according to the manufacture's instruction. The signal was detected using an EnVision Xcite multilabel reader and data were analyzed using GraphPad Prism 8 software.
To verify the effect of the STING agonist compounds in normal cell cytotoxicity, the PBMCs were treated with the STING agonist compounds for 3 days and measured the percentage of cell death.

hSTING HAQ variant = molecular target: T2, hSTING HAQ variant (Homo sapiens, UniProt Q86WV6, G230A/H232R/R293Q/R71H); assay: STING activation, THP1-Dual IRF3 reporter assay, hSTING-HAQ cells; assay type: cell-based; settings: IRF3 luciferase reporter, 24 hours, read-out: STING activity using hSTING-HAQ cells, HAQ EC50
T2 construct: host or cells: THP1-Dual cells (human monocytes)
T2 sequence (Q86WV6 whole entry R71H/G230A/H232R/R293Q): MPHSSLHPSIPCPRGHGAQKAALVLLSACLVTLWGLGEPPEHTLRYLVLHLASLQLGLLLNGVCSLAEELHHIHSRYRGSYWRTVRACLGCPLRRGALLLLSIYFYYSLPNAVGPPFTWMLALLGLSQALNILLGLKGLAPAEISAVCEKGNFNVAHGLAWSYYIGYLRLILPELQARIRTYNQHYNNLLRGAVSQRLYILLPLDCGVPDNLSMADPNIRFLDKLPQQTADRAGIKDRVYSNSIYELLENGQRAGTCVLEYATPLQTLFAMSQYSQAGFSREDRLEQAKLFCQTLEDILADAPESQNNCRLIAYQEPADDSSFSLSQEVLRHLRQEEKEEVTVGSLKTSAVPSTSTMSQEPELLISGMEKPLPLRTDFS
Experimental: as §1, §2

hSTING-WT (R232) = molecular target: T3, hSTING-WT (R232) (Homo sapiens, UniProt Q86WV6, H232R); assay: STING activation, THP1-Dual IRF3 reporter assay, hSTING-R232 cells; assay type: cell-based; settings: IRF3 luciferase reporter, 24 hours, read-out: STING activity using hSTING-R232 cells EC50
T3 construct: host or cells: THP1-Dual cells (human monocytes) with knocked-in hSTING R232
T3 sequence (Q86WV6 whole entry H232R): as the sequence (Q86WV6 whole entry R71H/G230A/H232R/R293Q) above, with H71R, A230G, Q293R counted along it
Experimental: as §1, §2

[2] = Normal cell cytotoxicity in CD34+ HSC, CellTiter-Glo; assay type: cell-based; settings: human, CD34+ hematopoietic stem cells (HSCs), read-out: In vitro cell cytotoxicity in CD34+ HSC CC50
Experimental: The CD34^+ hematopoietic stem cells (HSCs) were purchased from […]™ (#70002.3). The cells (2×10^4 cells per well) were cultured in StemSpan™ SFEM II medium supplemented with StemSpan™ CD34+ Expansion Supplement (#02691) in a 6-well plate at 37° C. for 7 days. On day 3 or 4, an equal volume of fresh complete medium was added into the cell culture. On day 7, the cells (4×10^4 cells per well) were seeded in a 96-well white plate and rested for 24 hours in the same condition.
After 72 hours, the cell viability was measured using CellTiter-Glo Luminescent Cell Viability Assay (Promega, #G7573) according to the manufacture's instruction. The signal was detected using an EnVision Xcite multilabel reader and data were analyzed using GraphPad Prism 8 software.

human STING = molecular target: T4, human STING (Homo sapiens, UniProt Q86WV6, H232R); assay: Direct STING binding, HUMAN STING WT BINDING KIT (Cisbio); settings: direct binding to human STING WT protein in vitro; read-out: Binding potency EC50
T4 construct: purchased Cisbio 64BDSTGPEG
T4 sequence (Q86WV6 whole entry H232R): as the sequence (Q86WV6 whole entry R71H/G230A/H232R/R293Q) above, with H71R, A230G, Q293R counted along it
From the text: Additionally, for analysis of direct binding potency of STING agonist compounds described herein to human STING, HUMAN STING WT BINDING KIT (Cisbio, #64BDSTGPEG) was used according to the manufacture's instruction.

[3] = Plasma pharmacokinetics in naive Balb/C mouse, LC-MS/MS; assay type: in vivo; settings: 1.5 mg/kg single IV; for AUC∞, norm / Cmax, norm: n = 3, dose-normalised; for AUC(0-inf) / AUC(0-t) / C0 / Cmax / clearance / half-life / Vd: female; for AUC(0-inf) / AUC(0-t) / C0 / Cmax: n = 3, plasma; for clearance / half-life / Vd: plasma; for clearance / half-life: n = 3; for Vd: n = 3, read-out: VSS
Experimental: For in vivo evaluation of STING agonist compounds described herein in naïve Balb/C mouse, single doses of STING agonist compounds were given at 1.5 mg/kg intravenously into female BALB/c mice (Orientbio, South Korea) at 6-8 weeks of age. Pharmacokinetics were studied following injection of the STING agonist compounds into Balb/C mice. Plasma samples were taken at various time points and stored frozen for analysis. The plasma concentrations of the STING agonist compounds at the indicated time points were measured using a LC-MS/MS analysis method.
Briefly, 250 μL of acetonitrile (ACN) solution was added in both 50 μL of sample and 50 μL of plasma containing 10 nM Dextromethorphan (internal standard), and the solutions were mixed vigorously using a vortex mixer for 5 minutes. The samples were then spun down at 14,000 rpm, 4° C. for 5 minutes. 100 μL of supernatants were combined with 100 μL of mobile phase A (0.1% formic acid in water with 5% ACN) and mixed thoroughly. The samples were measured for the STING agonist compounds using a LC-MS/MS (Nexera LC40 (SHIMADZU) and QTRAP4500 (SCIEX)).

Row | Structure (SMILES) | EC50 (hSTING H232 variant) | EC50 (hSTING HAQ variant) | EC50 (hSTING-WT (R232)) | EC50 (human STING) | AUC∞, norm [3] | Cmax, norm [3] | AUC(0-inf) [3] | AUC(0-t) [3] | C0 [3] | Cmax [3] | clearance [3] | half-life [3] | Vd [3] | CC50 at 72 h [1] | CC50 at 72 h [2]
1 | CCn1nc(C)cc1C(=O)Nc1nc2cc(C(N)=O)cc(OC)c2n1C/C=C/Cn1c(NC(=O)c2cc(C)nn2CC)nc2cc(C(N)=O)cc(OC/C=C/CN3CCN(C(=O)OCc4ccc(O[C@@H]5O[C@H](C(=O)O)[C@@H](O)[C@H](O)[C@H]5O)c(C(=O)NCCOCCOCCO)c4)CC3=O)c21 [Compound 302] | 96.6 nM | 83.5 nM | 46.7 nM | 0.38 nM | – | – | – | – | – | – | – | – | – | 59.2 nM | 21.5 nM
2 | CCn1nc(C)cc1C(=O)Nc1nc2cc(C(N)=O)cc(NC/C=C/Cn3cc(N(CCC(=O)O)C(=O)OCc4ccc(O[C@@H]5O[C@H](C(=O)O)[C@@H](O)[C@H](O)[C@H]5O)c(C(=O)NCCOCCOCCN(C)C)c4)cn3)c2n1C/C=C/Cn1c(NC(=O)c2cc(C)nn2CC)nc2cc(C(N)=O)cc(OC)c21 [Compound 363] | – | – | 403 nM | 0.8 nM | – | – | – | – | – | – | – | – | – | – | 86.1 nM
3 | CCn1nc(C)cc1C(=O)Nc1nc2cc(C(N)=O)cc(OC/C=C/Cn3cc(NC(=O)OCc4ccc(O[C@@H]5O[C@H](C(=O)O)[C@@H](O)[C@H](O)[C@H]5O)c(C(=O)NCCOCCOCCO[C@@H]5O[C@H](C(=O)O)[C@@H](O)[C@H](O)[C@H]5O)c4)cn3)c2n1C/C=C/Cn1c(NC(=O)c2cc(C)nn2CC)nc2cc(C(N)=O)cc(OCCCC(=O)O)c21 [Compound 396] | – | – | 240 nM | – | – | – | – | – | – | – | – | – | – | – | 156 nM
4 | CCn1nc(C)cc1C(=O)Nc1nc2cc(C(N)=O)cc(OC)c2n1C/C=C/Cn1c(NC(=O)c2cc(C)nn2CC)nc2cc(C(N)=O)cc(OC/C=C/CN3CCCN3C(=O)OCc3ccc(O[C@@H]4O[C@H](C(=O)O)[C@@H](O)[C@H](O)[C@H]4O)c(C(=O)NCCOCCOCCN(C)C)c3)c21 [Compound 424] | 117 nM | 517 nM | 72 nM | 1.6 nM | – | – | – | – | – | – | – | – | – | 147 nM | 30.6 nM
5 | CCn1nc(C)cc1C(=O)Nc1nc2cc(C(N)=O)cc(OC)c2n1C/C=C/Cn1c(NC(=O)c2cc(C)nn2CC)nc2cc(C(N)=O)cc(OCCCN3CCOCC3)c21 [Comparative #1, reference compound] | – | – | – | – | 0.66 ± 0.07 kg·h/L | 1.94 ± 0.30 kg/L | 990 ± 100 ng·h/mL | 980 ± 100 ng·h/mL | 4630 ± 860 ng/mL | 2910 ± 450 ng/mL | 25.5 mL/min/kg | 54.6 ± 2.4 min | 0.7 ± 0.15 L/kg | 3.34 nM | 2.1 nM
6 | CCc1nc(C)oc1C(=O)Nc1nc2cc(C(N)=O)cnc2n1C/C=C/Cn1c(NC(=O)c2oc(C)nc2CC)nc2cc(C(N)=O)cc(OCCCO)c21 [Comparative #2, reference compound] | 36.6 nM | 213 nM | 213 nM | 0.13 nM | 0.05 ± 0.01 kg·h/L | 0.16 ± 0.02 kg/L | 80 ± 10 ng·h/mL | 70 ± 10 ng·h/mL | 380 ± 50 ng/mL | 240 ± 30 ng/mL | 328 mL/min/kg | 12 ± 1.8 min | 5.1 ± 1.01 L/kg | 6.28 nM | –

Now from value to compound, other results behind:

Row | EC50 (hSTING H232 variant) | EC50 (hSTING HAQ variant) | EC50 (hSTING-WT (R232)) | EC50 (human STING) | AUC∞, norm [3] | Cmax, norm [3] | AUC(0-inf) [3] | AUC(0-t) [3] | C0 [3] | Cmax [3] | clearance [3] | half-life [3] | Vd [3] | Structure (SMILES) | CC50 at 72 h [1] | CC50 at 72 h [2]
7 | 96.7 nM | 108 nM | 39.2 nM | – | 9.89 ± 0.90 kg·h/L | 4.11 ± 0.28 kg/L | 14800 ± 1340 ng·h/mL | 14800 ± 1350 ng·h/mL | 6500 ± 490 ng/mL | 6160 ± 420 ng/mL | 1.67 mL/min/kg | 168 ± 16.2 min | 0.32 ± 0.03 L/kg | CCn1nc(C)cc1C(=O)Nc1nc2cc(C(N)=O)cc(OC)c2n1C/C=C/Cn1c(NC(=O)c2cc(C)nn2CC)nc2cc(C(N)=O)cc(OC/C=C/Cn3cc(NC(=O)OCc4ccc(O[C@@H]5O[C@H](C(=O)O)[C@@H](O)[C@H](O)[C@H]5O)c(C(=O)NCCC(=O)O)c4)cn3)c21 [Compound 281] | 127 nM | –
8 | 70.4 nM | 52 nM | 31.2 nM | 0.4 nM | – | – | – | – | – | – | – | – | – | CCn1nc(C)cc1C(=O)Nc1nc2cc(C(N)=O)cc(OC)c2n1C/C=C/Cn1c(NC(=O)c2cc(C)nn2CC)nc2cc(C(N)=O)cc(OC/C=C/CN3CCN(C(=O)OCc4ccc(O[C@@H]5O[C@H](C(=O)O)[C@@H](O)[C@H](O)[C@H]5O)c(C(=O)NCCOCCOCCN(C)C)c4)CC3=O)c21 [Compound 309] | 44.3 nM | –
9 | 119 nM | 477 nM | 45 nM | 0.92 nM | – | – | – | – | – | – | – | – | – | CCn1nc(C)cc1C(=O)Nc1nc2cc(C(N)=O)cc(OC)c2n1C/C=C/Cn1c(NC(=O)c2cc(C)nn2CC)nc2cc(C(N)=O)cc(OC/C=C/CN3CCCN3C(=O)OCc3ccc(O[C@@H]4O[C@H](C(=O)O)[C@@H](O)[C@H](O)[C@H]4O)c(C(=O)NCCOCCOCCO)c3)c21 [Compound 422] | 207 nM | 32.1 nM
